Laboratory results from US20250346550A1, “METHODS OF MODULATING ENDONUCLEASE G USING RESVERATROL AND ITS DERIVATIVES” (THE REGENTS OF THE UNIVERSITY OF COLORADO A BODY CORPORATE, priority 2022, published 2025).

Tests used:
Type in all cases: in vivo, C. elegans
[1] = toxicity observed in animal assays; details: neuronal death and tumor assays, 100 μM
Source text: As described above, Applicant's successfully synthesized a new compound, stabilized cis-resveratrol.

[2] = tested on: germline tumor in daf-16(mu86); cki-2(ok2105); glp-1(ar202) mutant (ET507); experiment: germline tumor model (ET507); details: 100 μM, ET507 at 20° C., vs 0.25% ethanol (FIG. 14)
Description: FIG. 9. Cis-resveratrol inhibits and trans-resveratrol promotes germline tumor formation. Tumor size and tumor occurring frequency of the daf-16(mu86); cki-2(0k2105); glp-1 (ar202) mutant grown at 20° C. and treated with 1% ethanol (Mock), 200 μM cis-resveratrol (Cis), and 200 μM trans-resveratrol (Trans), respectively, are shown. Tumor assays were performed in triplicate with 100 animals per replicate. a, A five-stage classification was created to measure the tumor size in adult day 5 animals under the Normaski optic. Score 1 denotes the normal gonads seen in wild-type animals. Score 5 denotes enlarged gonads full of mitotic germ cells and without any egg or oocyte. Score 2-4 denote partially enlarged gonads. b, Tumor frequency indicates the percentage of animals with enlarged gonads (score 5). Data from three independent biological replicates are shown as mean±SEM. *P<0.05; **P<0.01; ***P<0.001, two-sided, unpaired t-test.
FIG. 14. stabilized cis-resveratrol inhibits germline tumor formation as well as cis-resveratrol. Tumor occurring frequency of the daf-16 (mu86); cki-2 (0k2105); glp-1 (ar202) mutant (ET507) grown at 20° C. and treated with 0.25% ethanol (Mock), 100 μM cis-resveratrol, and 100 μM Stabilized cis-resveratrol, respectively, are shown. Tumor assays were performed in triplicate with 100 animals per replicate. Data are mean±s.e.m. ****P<0.001, two-sided, unpaired t-test
The present inventors tested whether resveratrol isomers affect tumorigenesis in a C. elegans germline tumor model (ET507), in which three cell growth genes, daf-16, cki-2, and glp-1, are mutated, leading to uncontrolled germ cell proliferation and germline tumor.

[3] = tested on: α-synuclein-induced dopaminergic neuronal death in baIn11 animals; experiment: α-synuclein-based Parkinson's Disease model, DA neuronal death; details: 100 μM, adult day 2 baIn11 animals vs 0.25% ethanol
Source text: FIG. 8. […] In each experiment, 300 animals were scored to determine the percentage of animals losing at least one dopaminergic neuron in the head. Data are mean±s.e.m. *P<0.05; ***P<0.001, two-sided, unpaired t-test.
FIG. 13. […] In each experiment, 300 animals were scored to determine the percentage of animals losing at least one of the six dopaminergic neurons in the head. Data are mean±s.e.m. ****P<0.001, two-sided, unpaired t-test.
In addition to PME and apoptosis, EndoG was previously shown to play an important role in mediating dopaminergic (DA) neuronal death induced by expression of human α-synuclein, which is widely considered to be a major proponent of Parkinson's disease. However, the mechanism by which EndoG mediates α-synuclein-induced neurodegeneration is unclear. In a C. elegans α-synuclein-based Parkinson's Disease model, co-expression of GFP and human α-synuclein in C. elegans dopaminergic neurons under the control of the promoter of the dat-1 gene, which encodes a dopamine transporter, from an integrated transgene baIn11 (Pdat-1::gfp/Pdat-1::α-synuclein) caused DA neuronal death in 30% of adult baIn11 animals (FIG. 8a). The cps-6(tm3222) mutation blocked DA neuronal death in adult baIn11 animals (FIG. 8a), confirming that CPS-6 is important for α-synuclein-induced DA neuronal death.

SMILES: O=C1CCC(c2ccc(O)cc2)=C1c1cc(O)cc(O)c1 [stabilized cis-resveratrol]
- toxicity in animal assays [1]: No obvious toxicity was observed
- germline tumor formation [2]: comparable activity as cis-resveratrol in strongly suppressing
- effect on α-synuclein-induced DA neuronal death [3]: comparable activity as cis-resveratrol in strongly suppressing
